In US8101736B2, “Polynucleotides and polypeptide of human KV1.3, compositions comprising same and methods of using same” (GeneGrafts Ltd., priority 2005, dated 2012):
Like-named read-outs stand apart in the source and are kept apart here.

Legend:
Human dermal fibroblasts = assay: Whole-cell patch clamp of transfected human dermal fibroblasts; assay type: cell-based; conditions: for potassium current amplitude: 7-20 days after nucleoporation, 12 cells per construct; for character of potassium current: FIG. 9 and FIG. 10
Text: (§1) Voltage clamp assay was used to test the expression and function of the over-expressed channels.
The protocol is using Collagenase type 1 (Worthington Biochemical Corp., Lakewood, N.J., cat. LS004196, lot.X4J7447) for extractions of cells from a tissue. Primary cultures were generated by seeding in flasks with growth Medium: DMEM+HEPES (ADCF) with phenol red (HyClone part no SH3A1534.01, Lot no ANM20173 custom made for biogenics, L.T.D). Medium was supplemented with 10% FBS defined (HyClone; Cat no: SH30072.03; Lot no: APD21173); ITS+1 liquid media supplement (sigma # I-2521); Gentamycin 50 μg ml (Beit ha'emek; cat no#03-035-1) and Amphotericin B 2.5 μg ml (Beit ha'emek; Catalog No. 03-029-1).
Five days prior to transfection, cells were seeded in 150 cm^2 flasks. Medium was changed every 3 days. Cells reached 90% confluence in the day of the transfection.
For expression of the wt and mutation constructs in human dermal fibroblasts, Amaxa Nucleofector (Amaxa biosystem) and Human Dermal Fibroblast (NHDF) Nucleofector kit (Catalog No. VPD-1001) were used. Nucleofection was done according to the protocol of the manufacturer. Cells from passage 1-5 were used. The expression was characterized using fluorescent microscopy and the patch clamp technique. Seven days after nucleofection patch clamp analysis were performed.
(§2) Patch clamp recordings—Voltage-clamp recordings were performed using the whole-cell patch clamp technique. All measurements were done at room temperature. Patch pipettes (2-4 MΩ) were prepared from glass capillary tubes (Jencons Catalog No. 687-055) using a double-stage puller (Narishige pp-830). Currents were recorded with an Axon Instruments amplifier (Axopatch 200), digitized by DigiData 1322A digitizer (Axon instruments). Data was analyzed using pCLAMP software (version 8.0). Bath solution for the whole-cell recordings contained (in mM): 140 NaCl, 3 KCl, 2 CaCl2, 2 MgCl2, 10 Glucose and 10 HEPES (pH 7.4). Pipette solution for the whole-cell recordings (in mM): 140 KCl, 10 Na2 ATP, 1 CaCl2, 1 MgCl2, 10 EGTA and 5 HEPES (pH 7.4). Currents were elicited by 200 ms pulses from holding potential of −80 mV to −90 mv and then to 110 mV in increments of 20 mV.

[1] = system: NIH/3T3 fibroblasts cell line; assay: Whole-cell patch clamp of transfected NIH/3T3 cells; assay type: cell-based, Mouse; conditions: stably transfected NIH/3T3 cells; for inactivation character of potassium current: FIG. 7 and FIG. 8; for potassium current amplitude: whole-cell voltage clamp, room temperature
Procedure: Mouse fibroblasts cell line (NIH/3T3, ATCC ACCESSION NO. CRL-6361):
as §1
Selection was done using Neomycin sulfate (G418) antibiotic (Gibco Catalog No. 11811-031) which was added to the growth medium ([…]). Clones were isolated using cloning ring and cultured into 24 well plate (corning Catalog No. 3524). For expansion, confluent wells were transferred to six well plates and then to 100 mm culture dish (Corning Catalog No. 430167DMEM-complete+G418 10% FCS was thereafter replaced every 72 to 96 hours.
Total cell protein was extracted from the various clones using 300 μl cold RIPA buffer (with supplements; RIPA lysis buffer, 1× Santa Cruz Biotechnology, Catalog No. 24948) and screened by western blot analysis with rabbit anti-Kv1.3 antibody (CHEMICON, Catalog No. AB5178). Colonies that tested western blot positive were then analyzed by voltage clamp.
as §2

[2] = wild type, from Marom et al. 1995; cited from earlier work
[3] = Transition rate of the channel from open to inactivation; conditions: H399W mutant

Molecule	potassium current amplitude (Human dermal fibroblasts)	character of potassium current (Human dermal fibroblasts)	inactivation character of potassium current [1]	potassium current amplitude [1]	transition rate from open to inactivation [2]	transition rate from open to inactivation [3]
wild type Kv1.3: wild type human Kv1.3 voltage-gated potassium channel (SEQ ID NO: 4, GenBank AAC31761, KCNA3)	600-2500 pA	typical potassium	slowly inactivated	200-1500 pA	0.0074	–
H399W: human Kv1.3 channel mutated to express tryptophan at position 399 instead of histidine (SEQ ID NO: 2), expressed from pIRES2-EGFP (protein, A recombinant polypeptide having the H399W mutation) MTVVPGDHLLEPEVADGGGAPPQGGCGGGGCDRYEPLPPSLPAAGEQDCCGERVVINISGLRFETQLKTLCQFPETLLGDPKRRMRYFDPLRNEYFFDRNRPSFDAILYYYQSGGRIRRPVNVPIDIFSEEIRFYQLGEEAMEKFREDEGFLREEERPLPRRDFQRQVWLLFEYPESSGPARGIAIVSVLVILISIVIFCLETLPEFRDEKDYPASTSQDSFEAAGNSTSGSRAGASSFSDPFFVVETLCIIWFSFELLVRFFACPSKATFSRNIMNLIDIVAIIPYFITLGTELAERQGNGQQAMSLAILRVIRLVRVFRIFKLSRHSKGLQILGQTLKASMRELGLLIFFLFIGVILFSSAVYFAEADDPTSGFSSIPDAFWWAVVTMTTVGNSYGDMWPVTIGGKIVGSLCAIAGVLTIALPVPVIVSNFNYFYHRETEGEEQSQYMHVGSCQHLSSSAEELRKARSNSTLSKSEYMVIEEGGMNHSAFPQTPFKTGNSTATCTTNN	400-1200 pA	fast inactivated	fast inactivated	150-1800 pA	–	0.025
